Measured values: patent publication US7432295B2, “Preparation of compounds useful for the detection of hypoxia” (The Trustees of The University of Pennsylvania, priority 1999, dated 2008)
Where “and” joins values, the source holds several entries; their conditions need not be identical. Identical values can stand only once.

Experiments:
[1] = cited from earlier work
[2] = test system: hypoxic tumors; details: in vivo; cited from earlier work
[3] = Distribution of radioactive drug in various organs and tissues of tumor-bearing rats (γ-counter); assay type: in vivo, male Buffalo rats; details: I/V
Method: To measure the distribution of radioactive drug in various organs and tissues, the solution of […] in saline buffer was injected I/V into 3 male Buffalo rats. […] The radioactivity of samples was measured by γ-counter and corrected for weight and the time of decay.
Results from 3 animals are shown.

[4] = test system: hypoxic Q7 tumor (Morris 7777 hepatoma); experiment: PET analysis of a tumor-bearing rat treated with [18F]-EF5; assay type: in vivo, male Buffalo rats; details: rat bearing Q7 tumor in the leg, 150 minutes post injection
Method: The dark spot on the right side of the image represents a tumor and the dark spot in the middle of the image represents a bladder.
FIG. 3 illustrates a PET image of a tumor-bearing rat treated with 18-F-labeled EF5, 150 minutes post injection. The dark spot in the right side of the image represents the tumor and the dark spot in the middle of the image represents the bladder.
Q7 cells were obtained from the American Type Culture Collection (ATCC). They were maintained in exponential growth by transfers at 3.5 day intervals with standard culture conditions. Growth medium was Eagle's NEM supplemented with 15% fetal calf serum and standard penicillin and streptomycin.
All animal studies conformed to the regulations of the University of Pennsylvania Institutional Animal Care and Use Committee. Male Buffalo rats (Harlan Sprague Dawley, Indianapolis, Ind., USA) were used for all studies. Donor tumors were created by injecting 1 million Q7 cells subcutaneously into the thigh region. The average growth time to achieve a 1 cm diameter tumor was 21 days. Tumors of less than 2 g were used in the experiments.

[5] = multiple radioactive products distinct from parent drug following renal clearance; cited from earlier work

## O=C(Cn1ccnc1[N+](=O)[O-])NCC(F)(F)C(F)(F)F [EF5, 2-(2-nitro-1H-imidazol-1-yl)-N-(2,2,3,3,3-pentafluoropropyl)acetamide]
[1]
  Drug stability in vivo: high drug stability in vivo
[1]; in vivo
  Blood-brain barrier passage: ability to cross blood-brain barrier

## O=C(Cn1ccnc1[N+](=O)[O-])NCCCF [[^18F]-EF1]
[2]
  Biodistribution: relatively uniform biodistribution limited by slow equilibration with brain tissue
  Labeling of hypoxic tumors: good potential for labeling of hypoxic tumors

## O=C(Cn1ccnc1[N+](=O)[O-])NCC(F)(F)C(F)(F)F [[^18F]-EF5, [^18F]-2-(2-Nitro-1H-imidazol-1-yl)-N-(2,2,3,3,3-pentafluoropropyl)-acetamide]
[3]; Blood, 3 hrs
  Tissue distribution of [^18F]-EF5 in rats bearing tumors: 0.260 % dose/gram and 0.279 % dose/gram
[3]; Bone, 3 hrs
  Tissue distribution of [^18F]-EF5 in rats bearing tumors: 0.040 % dose/gram and 0.079 % dose/gram
[3]; Bone, 4 hrs
  Tissue distribution of [^18F]-EF5 in rats bearing tumors: 0.071 % dose/gram
[3]; Brain, 3 hrs
  Tissue distribution of [^18F]-EF5 in rats bearing tumors: 0.116 % dose/gram and 0.176 % dose/gram
[3]; Brain, 4 hrs
  Tissue distribution of [^18F]-EF5 in rats bearing tumors: 0.150 % dose/gram
[3]; Heart, 3 hrs
  Tissue distribution of [^18F]-EF5 in rats bearing tumors: 0.209 % dose/gram and 0.318 % dose/gram
[3]; Heart
  Tissue distribution of [^18F]-EF5 in rats bearing tumors: 0.277 % dose/gram
[3]; Intestine, 3 hrs
  Tissue distribution of [^18F]-EF5 in rats bearing tumors: 0.410 % dose/gram and 0.477 % dose/gram
[3]; Intestine, 4 hrs
  Tissue distribution of [^18F]-EF5 in rats bearing tumors: 0.376 % dose/gram
[3]; Kidney, 3 hrs
  Tissue distribution of [^18F]-EF5 in rats bearing tumors: 0.510 % dose/gram and 0.650 % dose/gram
[3]; Kidney, 4 hrs
  Tissue distribution of [^18F]-EF5 in rats bearing tumors: 0.500 % dose/gram
[3]; Liver, 3 hrs
  Tissue distribution of [^18F]-EF5 in rats bearing tumors: 0.399 % dose/gram and 0.578 % dose/gram
[3]; Liver, 4 hrs
  Tissue distribution of [^18F]-EF5 in rats bearing tumors: 0.489 % dose/gram
[3]; Lung, 3 hrs
  Tissue distribution of [^18F]-EF5 in rats bearing tumors: 0.217 % dose/gram and 0.357 % dose/gram
[3]; Lung, 4 hrs
  Tissue distribution of [^18F]-EF5 in rats bearing tumors: 0.326 % dose/gram
[3]; Muscle, 3 hrs
  Tissue distribution of [^18F]-EF5 in rats bearing tumors: 0.162 % dose/gram and 0.246 % dose/gram
[3]; Muscle, 4 hrs
  Tissue distribution of [^18F]-EF5 in rats bearing tumors: 0.187 % dose/gram
[3]; Spleen, 3 hrs
  Tissue distribution of [^18F]-EF5 in rats bearing tumors: 0.192 % dose/gram and 0.294 % dose/gram
[3]; Spleen, 4 hrs
  Tissue distribution of [^18F]-EF5 in rats bearing tumors: 0.242 % dose/gram
[4]
  Visibility of the tumor in the PET image: clearly visible

## O=[N+]([O-])c1nccn1CC(O)C[18F] (stereo not shown) [[^18F]-fluoromisonidazole]
[5]
  Stability in vivo: not stable in vivo
